Results: patent US20070093520A1, “Method of treatment of diarrhea-predominant irritable bowel syndrome in a subject” (priority 2005, published 2007)

Test system: diarrhea-predominant IBS subjects
Assay type: in vivo, human
Conditions: TEAE incidence, 2 mg, Safety Population
Description: The study was performed in approximately 150 study centers. Approximately 1600 eligible subjects were to be given cilansetron 2 mg TID. At Visit 1, pre-treatment assessments were conducted. […] Subjects were to return to the study site one month later for Visit 3 (Day 31) for their first interim assessment. […] All subjects who discontinued from the study were to have the same post-study assessments required at Visit 7 performed at their early termination visit. […]
Stool specimens were analyzed at every visit for occult blood. An independent GERB had been established to provide advice on GI AEs during the course of the study.
Adverse events were assessed at Baseline, at each clinic visit, and at the end of the study (Month 12 or the early termination visit). All AEs, which occurred during the study were followed up in accordance with good medical practice until resolved or judged no longer clinically significant, or if a condition was chronic, until fully characterized. Adverse events could occur in the specified follow-up period and, regardless of the interval since the last administration of the study medication, were treated in the same manner as an AE which occurred during the treatment with study medication. Each AE was evaluated for duration, severity, seriousness, and causal relationship to the investigational drug. The action taken and the outcome were also recorded.
Specifically, subjects who were lost to follow-up and had no post-Baseline contact with the site were excluded from the Safety population. The subjects who discontinued from the study due to lost to follow-up were identified based on the information collected on the study termination CRF page.
After the pretreatment assessment at Visit 1 (Days […] to −3), subjects were to return to the study site for a Baseline assessment and start the treatment at Visit 2 (Day 1).
For the by time-interval analyses of disposition, prevalence of AEs, and of markedly abnormal and predefined changes in laboratory values, vital signs, and ECGs, the following interval windows were used:
Adverse events that were already present prior to the first dose of cilansetron study medication but increased in severity afterwards were considered as treatment-emergent.
The 5% cutoff point was based on the incidence within higher level terms.
Subjects were counted at most once for each primary system organ class and preferred term. Serious AEs that resolved prior to receiving study medication or occurred more than 30 days after the last dose of study medication were not included in the incidence tables. A listing of all SAEs is presented; SAEs with onset prior to receiving study medication or more than 30 days after discontinuation of study medication were flagged. The listing presents lower level term and preferred term of the SAE, severity, action taken, outcome, and relationship of the SAE, start and stop date of the SAE, study day of onset of the SAE, age, race, and sex.

Cc1nccn1C[C@H]1CCc2c(c3cccc4c3n2CCC4)C1=O [cilansetron, (R)-(−)-4,5,6,8,9,10-hexahydro-10-[(2-methyl-1H-imidazol-1-yl)methyl]-11H-pyrido-[3,2,1-jk]-carbazol-11-one]
Neurosis NOS (PT): 5 (<1%) n (%)
Nightmare (PT): 2 (<1%) n (%)
Nocturia (PT): 1 (<1%) n (%)
Oedema Peripheral (PT): 1 (<1%) n (%)
Oligomenorrhoea NOS* (PT): 2 (<1%) n (%)
Onychoschizia (PT): 1 (<1%) n (%)
Osteoarthritis Aggravated (PT): 1 (<1%) n (%)
Osteochondrosis (PT): 1 (<1%) n (%)
Osteoporosis NOS (PT): 4 (<1%) n (%)
Ovarian Cyst* (PT): 2 (<1%) n (%)
Overweight (PT): 1 (<1%) n (%)
Pain NOS (PT): 5 (<1%) n (%)
Pain in Limb (PT): 11 (<1%) n (%)
Palpitations (PT): 5 (<1%) n (%)
Panic Disorder NOS (PT): 4 (<1%) n (%)
Peripheral Swelling (PT): 3 (<1%) n (%)
Pharyngitis (PT): 27 (2%) n (%)
Pharyngolaryngeal Pain (PT): 2 (<1%) n (%)
Photodermatosis (PT): 1 (<1%) n (%)
Polyarthritis (PT): 1 (<1%) n (%)
Polymenorrhoea* (PT): 1 (<1%) n (%)
Polymyalgia (PT): 1 (<1%) n (%)
Polyuria (PT): 2 (<1%) n (%)
Post Procedural Haemorrhage (PT): 1 (<1%) n (%)
Post Procedural Pain (PT): 4 (<1%) n (%)
Postmenopausal Haemorrhage* (PT): 1 (<1%) n (%)
Postmenopausal Symptoms* (PT): 1 (<1%) n (%)
Productive Cough (PT): 1 (<1%) n (%)
Prostatic Pain* (PT): 1 (<1%) n (%)
Prostatitis* (PT): 3 (<1%) n (%)
Proteinuria (PT): 2 (<1%) n (%)
Pruritus Generalised (PT): 2 (<1%) n (%)
Pruritus NOS (PT): 11 (<1%) n (%)
Psoriasis (PT): 5 (<1%) n (%)
Pyoderma (PT): 1 (<1%) n (%)
Pyrexia (PT): 20 (1%) n (%)
Radius Fracture (PT): 2 (<1%) n (%)
Rash Generalised (PT): 3 (<1%) n (%)
Rash NOS (PT): 10 (<1%) n (%)
Rash Papular (PT): 1 (<1%) n (%)
Rash Pruritic (PT): 1 (<1%) n (%)
Renal Colic (PT): 4 (<1%) n (%)
Renal Cyst NOS (PT): 1 (<1%) n (%)
Respiratory Disorder NOS (PT): 1 (<1%) n (%)
Restlessness (PT): 1 (<1%) n (%)
Rheumatoid Arthritis (PT): 1 (<1%) n (%)
Rheumatoid Arthritis Aggravated (PT): 1 (<1%) n (%)
Rhinitis Allergic NOS (PT): 4 (<1%) n (%)
Rhinitis NOS (PT): 4 (<1%) n (%)
Rhinorrhoea (PT): 2 (<1%) n (%)
Rib Fracture (PT): 2 (<1%) n (%)
Road Traffic Accident (PT): 1 (<1%) n (%)
Rosacea (PT): 1 (<1%) n (%)
Scar (PT): 1 (<1%) n (%)
Scleroderma (PT): 1 (<1%) n (%)
Seborrhoea (PT): 1 (<1%) n (%)
Sensation of Foreign Body NOS (PT): 1 (<1%) n (%)
Sinus Arrhythmia (PT): 2 (<1%) n (%)
Sinus Bradycardia (PT): 3 (<1%) n (%)
Sinus Congestion (PT): 1 (<1%) n (%)
Sinus Tachycardia (PT): 9 (<1%) n (%)
Skin Disorder NOS (PT): 1 (<1%) n (%)
Skin Eruption (PT): 1 (<1%) n (%)
Skin Inflammation NOS (PT): 1 (<1%) n (%)
Skin Necrosis (PT): 1 (<1%) n (%)
Skin Odour Abnormal (PT): 1 (<1%) n (%)
Skin Ulcer (PT): 1 (<1%) n (%)
Sleep Disorder NOS (PT): 2 (<1%) n (%)
Sneezing (PT): 2 (<1%) n (%)
Snoring (PT): 1 (<1%) n (%)
Soft Tissue Injury NOS (PT): 1 (<1%) n (%)
Solar Keratosis (PT): 1 (<1%) n (%)
Spinal Osteoarthritis (PT): 1 (<1%) n (%)
Spondylosis (PT): 2 (<1%) n (%)
Sputum Discoloured (PT): 1 (<1%) n (%)
Stress Incontinence (PT): 2 (<1%) n (%)
Stress Symptoms (PT): 8 (<1%) n (%)
Supraventricular Extrasystoles (PT): 1 (<1%) n (%)
Sweating Increased (PT): 7 (<1%) n (%)
Tachycardia NOS (PT): 3 (<1%) n (%)
Tachycardia Paroxysmal NOS (PT): 1 (<1%) n (%)
Tendon Injury (PT): 1 (<1%) n (%)
Tendonitis (PT): 3 (<1%) n (%)
Thermal Burn (PT): 1 (<1%) n (%)
Thirst (PT): 1 (<1%) n (%)
Toe Deformities NOS (PT): 1 (<1%) n (%)
Tonsillar Hypertrophy (PT): 1 (<1%) n (%)
Traumatic Chest Injury NOS (PT): 1 (<1%) n (%)
Upper Respiratory Tract Inflammation (PT): 1 (<1%) n (%)
Urethral Stricture (PT): 1 (<1%) n (%)
Urinary Frequency (PT): 5 (<1%) n (%)
Urinary Incontinence (PT): 4 (<1%) n (%)
Urinary Incontinence Aggravated (PT): 1 (<1%) n (%)
Urine Odour Abnormal (PT): 1 (<1%) n (%)
Urticaria NOS (PT): 4 (<1%) n (%)
Uterine Cervical Erosion* (PT): 1 (<1%) n (%)
Uterine Prolapse* (PT): 1 (<1%) n (%)
Vaginal Prolapse* (PT): 1 (<1%) n (%)
Ventricular Extrasystoles (PT): 3 (<1%) n (%)
Ventricular Hypertrophy (PT): 1 (<1%) n (%)
Vitamin B12 Deficiency (PT): 2 (<1%) n (%)
Weakness (PT): 14 (<1%) n (%)
Weight Fluctuation (PT): 1 (<1%) n (%)
Wheezing (PT): 1 (<1%) n (%)
Wrist Fracture (PT): 2 (<1%) n (%)
Cardiac Disorders (SOC): 46 (3%) n (%)
General Disorders and Administration Site Conditions (SOC): 85 (6%) n (%)
Injury, Poisoning and Procedural Complications (SOC): 59 (4%) n (%)
Metabolism and Nutrition Disorders (SOC): 54 (4%) n (%)
Psychiatric Disorders (SOC): 74 (5%) n (%)
Renal and Urinary Disorders (SOC): 40 (3%) n (%)
Reproductive System and Breast Disorders (SOC): 38 (3%) n (%)
Respiratory, Thoracic and Mediastinal Disorders (SOC): 91 (6%) n (%)
Skin and Subcutaneous Tissue Disorders (SOC): 70 (5%) n (%)
